This assay deals with T1, Ectonucleoside triphosphate diphosphohydrolase 2 (Rattus norvegicus) (UniProt O35795).
T1 sequence (whole entry): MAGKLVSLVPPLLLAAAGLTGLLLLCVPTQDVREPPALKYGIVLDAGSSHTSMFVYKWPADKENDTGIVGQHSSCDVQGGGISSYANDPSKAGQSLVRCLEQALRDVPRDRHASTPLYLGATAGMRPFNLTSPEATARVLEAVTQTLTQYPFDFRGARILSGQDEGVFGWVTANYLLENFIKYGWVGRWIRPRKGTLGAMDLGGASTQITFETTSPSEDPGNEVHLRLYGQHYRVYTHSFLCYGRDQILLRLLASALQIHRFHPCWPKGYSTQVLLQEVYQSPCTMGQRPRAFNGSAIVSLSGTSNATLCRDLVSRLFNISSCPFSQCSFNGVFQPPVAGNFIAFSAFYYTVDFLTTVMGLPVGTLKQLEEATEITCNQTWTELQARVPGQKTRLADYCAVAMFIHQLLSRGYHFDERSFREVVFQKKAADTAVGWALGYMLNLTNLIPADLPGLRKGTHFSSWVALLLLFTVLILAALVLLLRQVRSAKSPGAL
To be noted: CHO, 1 mM.

A word on the inhibition: it is the share of the control response that was lost under treatment. A low value points to little suppression.

Description: Inhibition of rat recombinant NTPDase2 expressed in CHO cells at 1 mM

`CCN(CC)c1ncnc2c1ncn2[C@@H]1O[C@H](COP(=O)(O)OP(=O)(O)C(Br)(Br)P(=O)(O)O)[C@@H](O)[C@H]1O` had an inhibition of 50%.

The values are drawn from ChEMBL document CHEMBL1146151, “Polyoxometalates--a new class of potent ecto-nucleoside triphosphate diphosphohydrolase (NTPDase) inhibitors” (Bioorg Med Chem Lett, 2006).
